Read-outs that look alike come from different tables or passages of the source.
Target: T1, BRAF V600E (Homo sapiens, UniProt P15056+Q96SW2, V600E)
T1 construct: knock-in of the HiBiT tag to the endogenous BRAF V600E locus; host or cells: A375.10 (A375 clonal line, CRISPR HiBiT knock-in at the endogenous BRAF V600E locus)
Experiment: BRAF V600E HiBiT Degradation Assay
Format: cell-based
Method in brief: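 Endogenous HiBiT knock-in on BRAF V600E in A375 cells (clone A375.10); 11-point half-log series, top 10 μM, 2, 6 or 24 h at 37° C. Lytic HiBiT luminescence, background-subtracted, normalized to DMSO; 4-parameter fit gives DC50, Emax (residual protein) and IP (inflection point).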

[1] = A375.10 cells, BRAF V600E, 2 hours, inflection point, read-out: HiBiT-Degradation A375.10 BRAF 2 hours IP
[2] = A375.10 cells, BRAF V600E, 2 hours, read-out: HiBiT-Degradation A375.10 BRAF 2 hours DC50
[3] = A375.10 cells, BRAF V600E, 6 hours, inflection point, read-out: HiBiT-Degradation A375.10 BRAF 6 hours IP
[4] = A375.10 cells, BRAF V600E, 6 hours, read-out: HiBiT-Degradation A375.10 BRAF 6 hours DC50
[5] = A375.10 cells, BRAF V600E, 6 hours, residual protein remaining, read-out: HiBiT-Degradation A375.10 BRAF 6 hours Emax
[6] = A375.10 cells, HiBiT, BRAF V600E, 24 hours, read-out: HiBiT-Degradation A375.10 BRAF 24 hours DC50
[7] = A375.10 cells, HiBiT, BRAF V600E, 24 hours, read-out: HiBiT-Degradation A375.10 BRAF 24 hours Emax
[8] = A375.10 cells, HiBiT, BRAF V600E, 24 hours, read-out: HiBiT-Degradation A375.10 BRAF 24 hours IP
[9] = read-out: HiBiT-Degradation A375.10 BRAF 2 hours Emax, A375.10 cells, BRAF V600E, 2 hours, residual protein remaining
[10] = A375.10 cells, BRAF V600E, 2 hours, residual protein remaining, read-out: HiBiT-Degradation A375.10 BRAF 2 hours Emax

T1 sequence (P15056 whole entry V600E): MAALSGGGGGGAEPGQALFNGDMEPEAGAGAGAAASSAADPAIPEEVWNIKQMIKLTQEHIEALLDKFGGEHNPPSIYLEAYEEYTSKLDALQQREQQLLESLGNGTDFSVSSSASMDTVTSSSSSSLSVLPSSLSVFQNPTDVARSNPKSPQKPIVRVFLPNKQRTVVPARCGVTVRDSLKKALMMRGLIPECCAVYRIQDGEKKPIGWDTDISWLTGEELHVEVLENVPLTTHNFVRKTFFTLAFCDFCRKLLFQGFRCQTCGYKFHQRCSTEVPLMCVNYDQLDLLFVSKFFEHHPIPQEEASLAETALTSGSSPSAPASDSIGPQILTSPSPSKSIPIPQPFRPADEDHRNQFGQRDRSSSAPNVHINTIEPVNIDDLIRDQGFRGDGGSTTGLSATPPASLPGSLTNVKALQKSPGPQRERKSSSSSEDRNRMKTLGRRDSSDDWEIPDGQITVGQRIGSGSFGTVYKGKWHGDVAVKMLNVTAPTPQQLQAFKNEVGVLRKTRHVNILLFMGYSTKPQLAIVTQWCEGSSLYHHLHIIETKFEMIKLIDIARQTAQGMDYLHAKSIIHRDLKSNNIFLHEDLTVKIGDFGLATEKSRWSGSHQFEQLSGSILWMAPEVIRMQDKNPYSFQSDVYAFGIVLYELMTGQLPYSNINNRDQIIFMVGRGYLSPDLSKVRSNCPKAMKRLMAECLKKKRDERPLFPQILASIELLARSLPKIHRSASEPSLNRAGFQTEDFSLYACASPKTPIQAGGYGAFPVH
T1 sequence (Q96SW2 whole entry): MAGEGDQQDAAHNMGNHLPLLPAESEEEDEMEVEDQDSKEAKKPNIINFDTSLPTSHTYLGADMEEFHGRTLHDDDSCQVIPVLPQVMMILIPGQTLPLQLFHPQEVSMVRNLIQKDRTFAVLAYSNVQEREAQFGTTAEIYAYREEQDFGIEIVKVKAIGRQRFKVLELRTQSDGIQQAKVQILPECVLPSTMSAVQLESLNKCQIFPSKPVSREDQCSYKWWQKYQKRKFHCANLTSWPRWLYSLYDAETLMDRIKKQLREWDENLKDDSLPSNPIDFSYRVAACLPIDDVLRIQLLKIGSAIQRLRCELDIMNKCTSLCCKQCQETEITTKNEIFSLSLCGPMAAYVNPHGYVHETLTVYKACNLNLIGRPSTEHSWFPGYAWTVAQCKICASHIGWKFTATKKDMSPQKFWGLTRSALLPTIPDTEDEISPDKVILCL
T1 sequence (Q16531 whole entry partner): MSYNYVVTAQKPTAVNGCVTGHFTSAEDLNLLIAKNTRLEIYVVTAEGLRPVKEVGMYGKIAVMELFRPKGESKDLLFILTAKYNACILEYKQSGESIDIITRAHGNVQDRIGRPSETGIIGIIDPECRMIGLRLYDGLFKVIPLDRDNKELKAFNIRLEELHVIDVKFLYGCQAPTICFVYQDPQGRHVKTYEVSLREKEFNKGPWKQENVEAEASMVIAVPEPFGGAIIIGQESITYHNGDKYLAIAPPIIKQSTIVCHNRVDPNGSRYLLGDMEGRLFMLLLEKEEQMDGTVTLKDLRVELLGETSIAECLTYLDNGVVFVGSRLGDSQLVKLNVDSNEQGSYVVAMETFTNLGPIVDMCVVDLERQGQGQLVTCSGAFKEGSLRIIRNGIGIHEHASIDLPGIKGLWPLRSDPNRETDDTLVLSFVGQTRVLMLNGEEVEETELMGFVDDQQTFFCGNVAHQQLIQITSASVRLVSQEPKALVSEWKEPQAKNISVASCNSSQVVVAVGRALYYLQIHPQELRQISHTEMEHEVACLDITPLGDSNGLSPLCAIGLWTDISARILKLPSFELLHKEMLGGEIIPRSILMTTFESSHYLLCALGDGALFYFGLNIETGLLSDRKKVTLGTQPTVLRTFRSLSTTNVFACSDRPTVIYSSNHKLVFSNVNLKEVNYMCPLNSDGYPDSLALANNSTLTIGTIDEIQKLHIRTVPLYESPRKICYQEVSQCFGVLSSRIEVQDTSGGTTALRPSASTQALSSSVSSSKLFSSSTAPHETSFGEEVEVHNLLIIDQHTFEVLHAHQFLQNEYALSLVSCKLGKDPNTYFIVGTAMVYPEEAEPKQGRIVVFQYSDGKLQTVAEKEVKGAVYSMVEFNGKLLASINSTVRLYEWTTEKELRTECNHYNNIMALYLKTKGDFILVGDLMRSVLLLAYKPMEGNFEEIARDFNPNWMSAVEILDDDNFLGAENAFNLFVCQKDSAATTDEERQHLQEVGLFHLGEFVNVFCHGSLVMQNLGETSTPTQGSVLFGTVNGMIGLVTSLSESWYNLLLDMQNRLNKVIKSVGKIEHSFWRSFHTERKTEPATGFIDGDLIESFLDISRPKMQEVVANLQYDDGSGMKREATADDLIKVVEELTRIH

| SMILES | DC50 [1] [µM] | DC50 [2] [µM] | DC50 [3] [µM] | DC50 [4] [µM] | Emax [5] [%] | DC50 [6] [µM] | Emax [7] [%] | DC50 [8] [µM] | Emax [9] [%] | Emax [10] [%] | HiBiT-Degradation A375.10 BRAF 2 hours IP (A375.10 cells, BRAF V600E, 2 hours, inflection point) | HiBiT-Degradation A375.10 BRAF 6 hours IP (A375.10 cells, BRAF V600E, 6 hours, inflection point) | HiBiT-Degradation A375.10 BRAF 24 hours IP (A375.10 cells, HiBiT, BRAF V600E, 24 hours) | DC50 (read-out: HiBiT-Degradation A375.10 BRAF 2 hours DC50, A375.10 cells, BRAF V600E, 2 hours) [µM] | DC50 (read-out: HiBiT-Degradation A375.10 BRAF 6 hours DC50, A375.10 cells, BRAF V600E, 6 hours) [µM] | DC50 (read-out: HiBiT-Degradation A375.10 BRAF 24 hours DC50, A375.10 cells, HiBiT, BRAF V600E, 24 hours) [µM] | HiBiT-Degradation A375.10 BRAF 2 hours Emax |
| --- | --- | --- | --- | --- | --- | --- | --- | --- | --- | --- | --- | --- | --- | --- | --- | --- | --- |
| CCN(C)S(=O)(=O)Nc1ccc(F)c(Oc2ccc3ncc([C@@H]4COC5(CCN(C6CCC(c7cc8c(cc7F)c(N7CCC(=O)NC7=O)nn8C)CC6)CC5)C4)nc3c2)c1C#N (single isomer, unassigned) [Compound 54] | < 1 | < 1 | < 1 | < 1 | < 50 | < 1 | < 50 | < 1 | < 50 |  |  |  |  |  |  |  |  |
| CCN(C)S(=O)(=O)Nc1ccc(F)c(Oc2ccc3ncc([C@H]4COC5(CCN(C6CCC(c7ccc(NC8CCC(=O)NC8=O)cc7F)CC6)CC5)C4)nc3c2)c1C#N (single isomer, unassigned) [Compound 58] | < 1 | < 1 | < 1 | < 1 | < 50 | < 1 | < 50 | < 1 | < 50 |  |  |  |  |  |  |  |  |
| CCN(C)S(=O)(=O)Nc1ccc(F)c(Oc2ccc3ncc([C@@H]4COC5(CCN(C6CCC(c7ccc(NC8CCC(=O)NC8=O)cc7F)CC6)CC5)C4)nc3c2)c1C#N (single isomer, unassigned) [Compound 60] | < 1 | < 1 | < 1 | < 1 | < 50 | < 1 | < 50 | < 1 | < 50 |  |  |  |  |  |  |  |  |
| CCN(C)S(=O)(=O)Nc1ccc(F)c(Oc2ccc3ncn([C@H]4COC5(CCN(C6CC(c7ccc(NC8CCC(=O)NC8=O)cc7F)C6)CC5)C4)c(=O)c3c2)c1C#N (single isomer, unassigned) [Compound 62] | < 1 | < 1 | < 1 | < 1 | < 50 | < 1 | < 50 | < 1 |  | < 50 |  |  |  |  |  |  |  |
| CCN(C)S(=O)(=O)Nc1ccc(F)c(Nc2ccc3ncn([C@H]4COC5(CCN(C6CCC(c7cc8c(cc7F)c(N7CCC(=O)NC7=O)nn8C)CC6)CC5)C4)c(=O)c3c2)c1C#N (single isomer, unassigned) [Compound 64] | < 1 | < 1 | < 1 | < 1 | < 50 | < 1 | < 50 | < 1 |  | < 50 |  |  |  |  |  |  |  |
| CCN(C)S(=O)(=O)Nc1ccc(F)c(Nc2ccc3ncn([C@H]4COC5(CCN(C6CCC(c7cc8c(cc7F)c(N7CCC(=O)NC7=O)nn8C)CC6)CC5)C4)c(=O)c3c2F)c1C#N (single isomer, unassigned) [Compound 67] | < 1 | < 1 | < 1 | < 1 | < 50 | < 1 | < 50 | < 1 |  | < 50 |  |  |  |  |  |  |  |
| CCN(C)S(=O)(=O)Nc1ccc(F)c(Oc2ccc3ncn([C@H]4COC5(CCN(C6CC(c7cc8c(cc7F)c(N7CCC(=O)NC7=O)nn8C)C6)CC5)C4)c(=O)c3c2)c1C#N (single isomer, unassigned) [Compound 70] |  |  |  |  | < 50 |  | < 50 |  |  | < 50 | *** (<=1 μM) | *** (<=1 μM) | *** (<=1 μM) | < 1 | < 1 | < 1 |  |
| CCN(C)S(=O)(=O)Nc1ccc(F)c(Oc2ccc3ncn([C@H]4COC5(CCN(C6CCC(c7cc8c(cc7F)c(N7CCC(=O)NC7=O)nn8C)CC6)CC5)C4)c(=O)c3c2)c1F (single isomer, unassigned) [Compound 71] | < 1 | < 1 | < 1 | < 1 | < 50 | < 1 | < 50 | < 1 |  | < 50 |  |  |  |  |  |  |  |
| CN(CCO)S(=O)(=O)Nc1ccc(F)c(Oc2ccc3ncn([C@H]4COC5(CCN(C6CCC(c7cc8c(cc7F)c(N7CCC(=O)NC7=O)nn8C)CC6)CC5)C4)c(=O)c3c2)c1C#N (single isomer, unassigned) [Compound 73] | < 1 | < 1 | < 1 | < 1 | < 50 | < 1 | < 50 | < 1 |  | < 50 |  |  |  |  |  |  |  |
| CN(CCO)S(=O)(=O)Nc1ccc(F)c(Oc2ccc3ncn([C@H]4COC5(CCN(C6CCC(c7ccc(NC8CCC(=O)NC8=O)cc7F)CC6)CC5)C4)c(=O)c3c2)c1C#N (single isomer, unassigned) [Compound 76] | < 1 | < 1 | < 1 | < 1 | < 50 | < 1 | < 50 | < 1 |  | < 50 |  |  |  |  |  |  |  |
| CCN(C)S(=O)(=O)Nc1ccc(F)c(Oc2ccc3ncn([C@H]4COC5(CCN(C6CCC(c7ccc(NC8CCC(=O)NC8=O)cc7F)CC6)CC5)C4)c(=O)c3c2)c1F (single isomer, unassigned) [Compound 78] | < 1 | < 1 | < 1 | < 1 | < 50 | < 1 | < 50 | < 1 |  | < 50 |  |  |  |  |  |  |  |
| CN(CCO)S(=O)(=O)Nc1ccc(F)c(Oc2ccc3ncn(C4CC5(CCN(C6CCC(c7ccc(NC8CCC(=O)NC8=O)cc7F)CC6)CC5)C4)c(=O)c3c2)c1C#N (single isomer, unassigned) [Compound 79, 6-[2-cyano-6-fluoro-3-[[2-hydroxyethyl(methyl)sulfamoyl]amino]phenoxy]-3-[7-[4-[4-[(2,6-dioxo-3-piperidyl)amino]-2-fluoro-phenyl]cyclohexyl]-7-azaspiro[3.5]nonan-2-yl]-4-oxo-quinazoline] | < 1 | < 1 | < 1 | < 1 | < 50 | < 1 | < 50 | < 1 |  | < 50 |  |  |  |  |  |  |  |
| CN(CCO)S(=O)(=O)Nc1ccc(F)c(Oc2ccc3ncn(C4CC5(CCN(C6CCC(c7cc8c(cc7F)c(N7CCC(=O)NC7=O)nn8C)CC6)CC5)C4)c(=O)c3c2)c1C#N (single isomer, unassigned) [Compound 81, 6-[2-cyano-6-fluoro-3-[[2-hydroxyethyl(methyl)sulfamoyl]amino]phenoxy]-3-[7-[4-[3-(2,4-dioxohexahydropyrimidin-1-yl)-5-fluoro-1-methyl-indazol-6-yl]cyclohexyl]-7-azaspiro[3.5]nonan-2-yl]-4-oxo-quinazoline] | < 1 | < 1 | < 1 | < 1 | < 50 | < 1 | < 50 | < 1 |  | 50 to 90 |  |  |  |  |  |  |  |
| CCN(C)S(=O)(=O)Nc1ccc(F)c(Oc2ccc3ncn(C4CC5(CCN(C6CCC(c7cc8c(cc7F)c(N7CCC(=O)NC7=O)nn8C)CC6F)CC5)C4)c(=O)c3c2)c1C#N (single isomer, unassigned) [Compound 83, 6-[2-cyano-3-[[ethyl(methyl)sulfamoyl]amino]-6-fluoro-phenoxy]-3-[7-[4-[3-(2,4-dioxohexahydropyrimidin-1-yl)-5-fluoro-1-methyl-indazol-6-yl]-2-fluoro-cyclohexyl]-7-azaspiro[3.5]nonan-2-yl]-4-oxo-quinazoline] | < 1 | < 1 | < 1 | < 1 | < 50 | < 1 | < 50 | < 1 | < 50 |  |  |  |  |  |  |  |  |
| CCN(C)S(=O)(=O)Nc1ccc(F)c(Oc2ccc3ncn(C4CC5(CCN(C6CCC(c7cc8c(cc7F)c(N7CCC(=O)NC7=O)nn8C)CC6F)CC5)C4)c(=O)c3c2)c1C#N (single isomer, unassigned) [Compound 85] | < 1 | < 1 |  |  |  |  |  |  |  |  |  |  |  |  |  |  | *** (<=50%) |
| CCN(C)S(=O)(=O)Nc1ccc(F)c(Oc2ccc3ncn(C4CC5(CCN(C6CCC(c7cc8c(cc7F)c(N7CCC(=O)NC7=O)nn8C)CC6F)CC5)C4)c(=O)c3c2)c1C#N (single isomer, unassigned) [Compound 86] | < 1 | < 1 |  |  |  |  |  |  |  |  |  |  |  |  |  |  | *** (<=50%) |

— US20260297060A1, “COMPOUNDS FOR THE DEGRADATION OF MUTANT BRAF” (C4 THERAPEUTICS, INC., priority 2023, published 2026)
